The values that follow come from patent US4359531A, “Production of isomaltulose” (Talres Development (N.A.) N.V., priority 1979, dated 1982).

This experiment has as its system isomaltulose-synthesising activity of the immobilized cells. As to the kind of experiment: Effect of chloramphenicol in the sucrose substrate on immobilized cells. The format is cell-based, Erwinia rhapontici. To be noted: 0.1 g/l in 55% (w/v) sucrose. From the text:
This hypothesis was confirmed when 0.1 g/l of chloramphenicol, which inhibits protein synthesis, was included in the 55% (w/v) sucrose used as substrate.

For the compound `O=C(N[C@H](CO)[C@H](O)c1ccc([N+](=O)[O-])cc1)C(Cl)Cl` [chloramphenicol], the “isomaltulose-synthesising activity in presence of chloramphenicol” value was “unaffected”. For the same compound, the “cell division in presence of chloramphenicol” value (even when nutrients supplied) is recorded as “no cell division took place”.
